Values of other authors in article PMC7587962, “Evaluation of Cytotoxicity and α-Glucosidase Inhibitory Activity of Amide and Polyamino-Derivatives of Lupane Triterpenoids” (Molecules, 2020).

Assays:
Parameters in all cases: method as in PMID 25405285
Conditions in all cases: standard drugs used by NCI as control; cited from earlier work
SK-MEL-2 = system: SK-MEL-2
HCT-116 = system: HCT-116
MDA-MB-435 = system: MDA-MB-435

COc1cccc2c1C(=O)c1c(O)c3c(c(O)c1C2=O)C[C@@](O)(C(=O)CO)C[C@@H]3O[C@H]1C[C@H](N)[C@H](O)[C@H](C)O1 [DRB, doxorubicin]
GI50 (SK-MEL-2): 170 nM | GI50 (HCT-116): 80 nM | GI50 (MDA-MB-435): 250 nM
